{
  "source": "patent US20140227335A1",
  "about": "(priority 2012, published 2014)",
  "key": {"HIV-1 92HT599": {"test_system": "HIV-1 92HT599", "assay": "Anti-HIV efficacy in fresh human PBMC (reverse transcriptase activity)", "type": "cell-based", "settings": "Human immunodeficiency virus 1, PBMC, 168 h; 92HT599 (clade B, X4); PBMCs, MOI = 0.1, 7 days"}, "HIV-1 92UG001": {"test_system": "HIV-1 92UG001", "assay": "Anti-HIV efficacy in fresh human PBMC (reverse transcriptase activity)", "type": "cell-based", "settings": "Human immunodeficiency virus 1, PBMC, 168 h; 92UG001 (clade D, X4/R5); PBMCs, MOI = 0.1, 7 days"}, "HIV-1 98IN022": {"test_system": "HIV-1 98IN022", "assay": "Anti-HIV efficacy in fresh human PBMC (reverse transcriptase activity)", "type": "cell-based", "settings": "Human immunodeficiency virus 1, PBMC, 168 h; 98IN022 (clade C, R5); PBMCs, MOI = 0.1, 7 days"}, "Sindbis virus (SINV)": {"test_system": "Sindbis virus (SINV)", "assay": "Sindbis virus plaque assay on BHK-J cells", "type": "cell-based", "settings": "300 μM PD"}, "[1]": {"test_system": "Lactobacillus jensenii ATCC 25258", "assay": "Lactobacillus toxicity testing (CFU)", "type": "cell-based", "method": "(§1) Reference strains of L. crispatus and L. jensenii were obtained from the ATCC (Manassas, Va.) and cultured on Columbia blood agar plates at 35° C. in air enriched with 6% CO2. Bacterial suspensions were prepared in saline or ACES buffer to a density of 2 McFarland units (˜2×10^8 bacteria/mL), and exposed to PD (300 μM) or DMSO (10%) for 30 minutes at 37° C. After incubation, the cells were serially diluted in ACES buffer, pH 7.0 (Sigma-Aldrich, St. Louis, Mo.) and plated on blood agar plates to quantify colony forming unit per mL (CFU/mL)\n(§2) Different bacterial strains were incubated with 300 μM PD or solvent DMSO-containing control media at 37° C. for 30 min and plated on blood agar plates to estimate their corresponding colony forming units per ml (CFU/ml). Less than 1 log difference between control and test CFU is considered non-toxic 17."}, "[2]": {"test_system": "Lactobacillus crispatus ATCC 33197", "assay": "Lactobacillus toxicity testing (CFU)", "type": "cell-based", "method": "as §1, §2"}, "[3]": {"test_system": "Lactobacillus jensenii LBP 28Ab", "assay": "Lactobacillus toxicity testing (CFU)", "type": "cell-based", "method": "as §1, §2"}, "HIV-1 (X4 NL4.3)": {"test_system": "HIV-1 (X4 NL4.3)", "assay": "HIV-1 sedimentation assay", "settings": "10 μM PD, 30 min, 37° C."}, "HIV-1 92UG029": {"test_system": "HIV-1 92UG029", "assay": "HIV infectivity assay in TZM-bl cells", "type": "cell-based", "settings": "92UG029 (clade A, X4); for IC50: Human immunodeficiency virus 1, TZM-bl"}, "SIVmac251 32H": {"test_system": "SIVmac251 32H", "assay": "SIV infectivity assay in TZM-bl cells", "type": "cell-based", "settings": "Simian immunodeficiency virus"}, "HCVcc": {"test_system": "HCVcc", "design": "species or system HCV"}, "HIV-1 93IN101": {"test_system": "HIV-1 93IN101", "assay": "HIV infectivity assay in TZM-bl cells", "type": "cell-based", "settings": "93IN101 (clade C, R5); for IC50: Human immunodeficiency virus 1, TZM-bl"}, "VSV-Gpp, HIVpp": {"test_system": "VSV-Gpp, HIVpp", "type": "cell-based, HIV pseudotyped lentiviruses"}, "[4]": {"assay": "Cytotoxicity on human cell lines (Cell Titer-Glo)", "type": "cell-based"}, "HIV-1 RU132": {"test_system": "HIV-1 RU132", "assay": "Anti-HIV efficacy in fresh human PBMC (reverse transcriptase activity)", "type": "cell-based", "settings": "Human immunodeficiency virus 1, PBMC, 168 h; RU132 (clade G, R5); PBMCs, MOI = 0.1, 7 days"}, "[5]": {"assay": "Lactobacillus toxicity testing (all strains, summary)", "type": "cell-based", "settings": "Lactobacillus (L. crispatus and L. jensenii), suspensions of vaginal commensal Lactobacillus strains; vaginal commensal bacteria Lactobacilli", "method": "as §1, §2"}, "Lactobacilli": {"test_system": "Lactobacilli", "assay": "Lactobacillus toxicity testing (all strains, summary)", "type": "cell-based", "settings": "300 μM PD, 37° C., 30 min", "method": "as §1, §2"}, "HIV-1 93BR020": {"test_system": "HIV-1 93BR020", "assay": "HIV infectivity assay in TZM-bl cells", "type": "cell-based", "settings": "93BR020 (clade F, X4); for IC50: Human immunodeficiency virus 1, TZM-bl"}, "[6]": {"assay": "Primary cells toxicity testing (LDH)", "type": "cell-based", "settings": "human, primary CD4+ T-lymphocytes, macrophages and dendritic cells, up to 14 days", "method": "Increasing concentrations were incubated with primary CD4^+ T-lymphocytes, macrophages and dendritic cells at 37° C. and the amounts of lactate dehydrogenase (LDH) present in the culture media were quantified after 0, 7 and 14 days. Error bars represent the standard deviation from two independent experiments.\nPrimary cells were seeded at 6×10^3 cells/well in flat bottom 96-well plates in triplicates in the presence of increasing concentrations of PD. We used the permeabilization agent saponin (0.1%) as positive control. After 0, 7 and 14 days, the amounts of lactate dehydrogenase (LDH) in the cell culture media were quantified using the LDH Cytotoxicity Assay Kit (Cayman Chemical, Ann Arbor, Mich.).\nCell death can occur either by apoptosis or by necrosis. Necrosis is accompanied by mitochondrial swelling and increased plasma membrane permeability, whereas apoptosis involves an articulated breakdown of the cell into membrane-bound apoptotic bodies. Lactate dehydrogenase (LDH) is a soluble cytosolic enzyme that is released into the culture medium following loss of membrane integrity resulting from either apoptosis or necrosis. LDH activity, therefore, can be used as an indicator of cell membrane integrity and serves as a general means to assess cytotoxicity resulting from chemical compounds or environmental toxic factors. […]"}, "[7]": {"settings": "300 μM PD, less than 1 log difference is considered non-toxic"}},
  "data": [
    {"smiles": "N=C1Sc2ccccc2C2=NCCCN12", "note": "[PD, PD 404,182]", "values": [
      {"measurement": "IC50", "setting": "HIV-1 92HT599", "result": 550, "unit": "nM"},
      {"measurement": "IC90", "setting": "HIV-1 92HT599", "result": 1920, "unit": "nM"},
      {"measurement": "IC50", "setting": "HIV-1 92UG001", "result": 1110, "unit": "nM"},
      {"measurement": "IC90", "setting": "HIV-1 92UG001", "result": 1890, "unit": "nM"},
      {"measurement": "IC50", "setting": "HIV-1 98IN022", "result": 400, "unit": "nM"},
      {"measurement": "IC90", "setting": "HIV-1 98IN022", "result": 1480, "unit": "nM"},
      {"measurement": "effect on infectivity of SINV", "setting": "Sindbis virus (SINV)", "result": "no significant inhibitory effect"},
      {"measurement": "Log(Control) − Log(PD)", "setting": "[1]; [7]", "result": "−0.122"},
      {"measurement": "CFU of Lactobacillus treated with 300 μM PD", "setting": "[1]; 30 min, 37° C.", "result": "7,533,333 CFU"},
      {"measurement": "Log(Control) − Log(PD)", "setting": "[2]; [7]", "result": "−0.019"},
      {"measurement": "CFU of Lactobacillus treated with 300 μM PD", "setting": "[2]; 30 min, 37° C.", "result": "7,260,000 CFU"},
      {"measurement": "Log(Control) − Log(PD)", "setting": "[3]; [7]", "result": "−0.021"},
      {"measurement": "CFU of Lactobacillus treated with 300 μM PD", "setting": "[3]; 30 min, 37° C.", "result": "10,033,333 CFU"},
      {"measurement": "sedimentation of HIV capsid and RT in sucrose gradient", "setting": "HIV-1 (X4 NL4.3)", "result": "viral capsid and RT relocate to the top of the gradient"},
      {"measurement": "IC90", "setting": "HIV-1 92UG029; PD in DMEM + 10% FBS", "result": "4400 ± 200", "unit": "nM"},
      {"measurement": "IC90", "setting": "HIV-1 92UG029; PD in cervical fluids", "result": "5300 ± 300", "unit": "nM"},
      {"measurement": "IC90", "setting": "HIV-1 92UG029; PD in seminal plasma", "result": "4710 ± 260", "unit": "nM"},
      {"measurement": "IC50", "setting": "HIV-1 92UG029; PD in DMEM + 10% FBS", "result": 1180, "unit": "nM"},
      {"measurement": "IC50", "setting": "HIV-1 92UG029; PD in cervical fluids", "result": 1470, "unit": "nM"},
      {"measurement": "IC50", "setting": "HIV-1 92UG029; PD in seminal plasma", "result": 1330, "unit": "nM"},
      {"measurement": "IC50", "setting": "SIVmac251 32H", "result": 1100, "unit": "nM"},
      {"measurement": "HCVcc virion lysis", "setting": "HCVcc", "result": 27, "unit": "%"},
      {"measurement": "IC50 (DMEM; IC90 per footnote)", "setting": "HIV-1 93IN101; PD in DMEM + 10% FBS", "result": "5100 ± 300", "unit": "nM"},
      {"measurement": "IC50 (Cervical Fluid; IC90 per footnote)", "setting": "HIV-1 93IN101; PD in cervical fluids", "result": "5500 ± 200", "unit": "nM"},
      {"measurement": "IC50 (Seminal Plasma; IC90 per footnote)", "setting": "HIV-1 93IN101; PD in seminal plasma", "result": "5360 ± 370", "unit": "nM"},
      {"measurement": "IC50", "setting": "HIV-1 93IN101; PD in DMEM + 10% FBS", "result": 1500, "unit": "nM"},
      {"measurement": "IC50", "setting": "HIV-1 93IN101; PD in cervical fluids", "result": 1800, "unit": "nM"},
      {"measurement": "IC50", "setting": "HIV-1 93IN101; PD in seminal plasma", "result": 1760, "unit": "nM"},
      {"measurement": "increase in IC50", "setting": "VSV-Gpp, HIVpp", "result": "50-80 fold"},
      {"measurement": "CC50", "setting": "[4]; HepG2, HCT-8, Huh-7, Huh-7.5, TZM, PC3 and 293T cells, seven different human cell lines", "result": "> 300000", "unit": "nM"},
      {"measurement": "CC50", "setting": "[4]; human, TZM-bl (HeLa) cervical cancer cells", "result": "> 300000", "unit": "nM"},
      {"measurement": "IC50", "setting": "HIV-1 RU132", "result": 200, "unit": "nM"},
      {"measurement": "IC90", "setting": "HIV-1 RU132", "result": 530, "unit": "nM"},
      {"measurement": "CC50 at 30 min", "setting": "[5]", "result": "> 300000", "unit": "nM"},
      {"measurement": "effect on Lactobacillus strains", "setting": "Lactobacilli", "result": "no adverse effect on all strains of bacteria tested"},
      {"measurement": "IC90", "setting": "HIV-1 93BR020; PD in DMEM + 10% FBS", "result": "6900 ± 400", "unit": "nM"},
      {"measurement": "IC90", "setting": "HIV-1 93BR020; PD in cervical fluids", "result": "7500 ± 400", "unit": "nM"},
      {"measurement": "IC90", "setting": "HIV-1 93BR020; PD in seminal plasma", "result": "7190 ± 620", "unit": "nM"},
      {"measurement": "IC50", "setting": "HIV-1 93BR020; PD in DMEM + 10% FBS", "result": 1400, "unit": "nM"},
      {"measurement": "IC50", "setting": "HIV-1 93BR020; PD in cervical fluids", "result": 1900, "unit": "nM"},
      {"measurement": "IC50", "setting": "HIV-1 93BR020; PD in seminal plasma", "result": 1610, "unit": "nM"},
      {"measurement": "CC50 at 14 days", "setting": "[6]", "result": "> 300000", "unit": "nM"}
    ]}
  ]
}
